Reference: publication PMC5108032, “Discovery of a Quinoline-4-carboxamide Derivative with a Novel Mechanism of Action, Multistage Antimalarial Activity, and Potent in Vivo Efficacy” (Journal of Medicinal Chemistry, 2016)
Where two headings read alike, the source gives them in different places. Values belong to the compound of their own block, whether it stands above or below them.

Legend:
Pf (3D7) = experiment: Ligand efficiency metrics (LE, LLE, LELP), selectivity and fold changes; parameters: species or system Plasmodium falciparum; conditions: for drop in potency: Pf (3D7), relative to the comparator compound of the sentence
MRC-5 cell line = experiment: Mammalian cell growth inhibition counter-screen (resazurin); format: cell-based, human; conditions: Homo sapiens, MRC5; supplementary csv; read-out: Hs MRC-5 EC50
Procedure: (§1) Plasmodium falciparum screening
(§2) Assays against P. falciparum were conducted as previously described.1 Cultures of the widely-used malaria reference strain of chloroquine-sensitive Plasmodium falciparum strain 3D7 were maintained in a 5% suspension of human red blood cells (obtained from East of Scotland Blood Transfusion Service, Ninewells Hospital, Dundee) cultured in RPMI 1640 medium (pH 7.3) supplemented with 0.5% Albumax II (Gibco Life Technologies, San Diego, CA), 12 mM sodium bicarbonate, 0.2 mM hypoxanthine and 20 mg/L gentamicin at 37°C, in a humidified atmosphere of 1% O 2, 3% CO2 with a balance of nitrogen. Growth inhibition was quantified using a fluorescence assay utilising the binding of SYBR green to double stranded DNA, which emits a fluorescent signal at 528 nm after excitation at 485nm.2 Mefloquine (potency range 30-60 nM) was used as a drug control to monitor the quality of the assay (Z’ = 0.6 to 0.8, Signal to background >3, where Z’ is a measure of the discrimination between the positive and negative controls on a screen plate). A 96-well [3H]-Hypoxanthine incorporation assay was also developed as a secondary assay in order to validate compounds from the initial screen in an orthogonal platform.3 Compound bioactivity from both assays was expressed as […]
(§3) P. falciparum (panel of resistant strains) in vitro assay. (Swiss TPH)
(§4) All Plasmodium strains were cultured according to Trager and Jensen and are described at www.beiresources.org (resistant strains: K1, W2, 7G8, TM90C2A, D6 and V1/S, sensitive strain:
(§5) NF54). EC50 values were determined in vitro by measuring incorporation of the nucleic acid precursor […]
(§6) Mammalian Cell Growth Inhibition assay
(§7) A counter-screen against normal diploid human fibroblasts (MRC-5 cell line) was carried out to exclude non-selective, and toxic compounds. The assay was essentially carried out as described previously.4 Cells were plated and incubated overnight to allow them to adhere as monolayers. A working stock of each test compound was transferred to an intermediate 384-well plate and pre-diluted with minimum essential media (MEM). The pre-diluted stocks were then transferred onto the cell monolayers, and the plates were incubated for 68 h. Resazurin, to a final concentration of 50 μM, was added to each well, after which plates were incubated for a further 3 h and measured for fluorescence (λex=528 nm, λem=590 nm)
(§8) In vitro Cell Assay Data Analysis.
(§9) All data was processed using IDBS ActivityBase® raw data was converted into per cent inhibition through linear regression by setting the high inhibition control as 100% and the no inhibition control as 0%. Quality control criteria for passing plates were as follows: Z’> 0.5, S:B> 3, %CV(no inhibition < 15 . The formula used to calculate Z’ is 1 3× (St D e v _ hi gh + St D e v _ low) . […]
(§10) All EC50 Curve fitting was undertaken using XLFit version 4.2 using Model 205 with the following 4 parametric equation: y = A + B A A + ($-&) ,where A=% inhibition at bottom, B=% […]
(§11) inhibition at top, C= EC50, D= slope, x= inhibitor concentration and y= % inhibition. […]
(§12) reach 100% of inhibition, B was fixed to 100 only when at least 50% of inhibition was reached.
(§13) Plasmodium falciparum late stage (IV-V) gametocyte high content imaging assay Plasmodium falciparum NF54-pfs16-LUC-GFP stage IV-V Gametocytes were produced as described previously.5 Compounds were solubilized in DMSO and serially diluted in three concentrations per log standard curves in DM SO. One µl of compound was subsequently diluted in 25µl of water (4% DMSO) and 5µl transferred into the base of 384 well PerkinElmer CellCarrier plates. Forty-five µl of stage IV-V gametocytes (10%P in 0.1%H) were added to the imaging plates which were in turn sealed with a gas permeable membrane and incubated at 37°C, 5% CO 2, 5% O2, 90% N2 and 60% humidity […]
(§14) Post incubation, 5µl of MitoTracker® Red CM -H2Xros (MTR) solution (0.66ug/ml) was added to all wells and the plates incubated for a further 16hours. […]

[1] = as above; format: cell-based, human; conditions: human, MRC-5 cells (normal diploid human fibroblasts)
Procedure: as §1, §2, §3, §4, §5, §6, §7, §8, §9, §10, §11, §12, §13, §14

[2] = Intrinsic clearance (Cli) in mouse liver microsomes; format: in vitro ADME
Description: as §11, §12, §13
Post incubation, 5µl of MitoTracker® Red CM -H2Xros (MTR) solution (0.66ug/ml) was added to all wells and the plates incubated for a further 16hours. The assay plates were then imaged and the number of viable gametocytes determined for test compounds plus 0.4%DMSO and 5µM Puromycin.
(0.4%DMSO) control values. Percent inhibition was plotted against log compound concentration using a 4 parameter log dose, non-linear regression analysis, with sigmoidal dose response (variable slope) curve fit using Prizm 4.0. IC50 values were obtained from this curve fit. The compound testing was performed in duplicate point within two separate experiments.
Plasmodium berghei ookinete development assay
Assay was performed as previously reported.6 Briefly blood containing P. berghei CTRPp-GFP gametocytes was rapidly harvested from infected mice and introduced to test compounds pre-diluted in ookinete medium (to induce gamete formation and support ookinete development) in 96-well plates. Plates were incubated in the dark at 21°C for 22 hr before GFP fluorescence intensity measured in a plate reader. % inhibition of ookinete formation was calculated with reference to the fluorescence intensity values of a positive control (20 µM cycloheximide) and a solvent-only negative control (DMSO). All assays were performed in triplicate independent experiments and EC50 values calculated in Graphpad Prism.
The aqueous solubility of the test compounds was measured using laser nephelometry, as described previously.7 Compounds were subject to serial dilution from 10 mg/mL to 0.5 mg/mL in DMSO. An aliquot was then mixed with MilliQ water to obtain an aqueous dilution plate with a final concentration range of 100 – 5 μg/mL, with a final DMSO concentration of 1.0%. Triplicate aliquots were transferred to a flat bottomed polystyrene plate which was immediately read on the NEPHELOstar (BMG Lab Technologies). The amount of laser scatter caused by insoluble particulates (relative nephelometry units, RNU) was plotted against compound concentration using a segmental regression fit, with the point of inflection being quoted as the compounds aqueous solubility (μg/mL; […]
Intrinsic Clearance (Cli) experiments
The procedure was carried out as reported previously.7 Test compound (0.5 µM) was incubated with female CD1 mouse, male sprague-dawley rat or pooled human mixed gender liver microsomes (Xenotech LLC TM; 0.5 mg/mL 50 mM potassium phosphate buffer, pH 7.4) and the reaction initiated […]
by the addition of excess NADPH (8 mg/mL 50 mM potassium phosphate buffer, pH 7.4).
Immediately, at time zero, then at 3, 6, 9, 15 and 30 min an aliquot (50 μL) of the incubation mixture was removed and mixed with acetonitrile (100 μL) to stop the reaction. Internal standard was added to all samples, the samples centrifuged to sediment precipitated protein and the plates then sealed prior to UPLC-MS/MS analysis using a Quattro Premier XE (Waters Corporation, USA).
XLfit (IDBS, UK) was used to calculate the exponential decay and consequently the rate constant (k) from the ratio of peak area of test compound to internal standard at each timepoint. The rate of […]

[3] = tested on: Plasmodium falciparum strain 3D7; experiment: Plasmodium falciparum screening, SYBR green growth inhibition; format: cell-based
Procedure: as §1, §2, §3, §4, §5, §6, §7, §8, §9, §10, §11, §12, §13, §14

P. berghei ANKA strain = experiment: In vivo antimalarial efficacy in the P. berghei mouse model (Peter's test); parameters: species or system Plasmodium berghei in female NMRI mice; conditions: 4 × 10 mg/kg oral, once daily; mice cured / mice in group
Procedure: Compound 41 was dosed as a bolus solution intravenously at 1 mg free base/kg (dose volume: 5 mL/kg; dose vehicle: 5% DMSO;saline) or by gavage orally as solution at 3 mg free base/kg (dose volume: 10 mL/kg; Dose vehicle: 0.5% w/v hydroxypropylmethylcellulose with 0.4% v/v Tween 80 and 0.5% v/v benzyl alcohol) to male Sprague Dawley rats (n=3/dose route). Blood samples were taken from each rat at 5, 15, 30 min, 1, 2, 4, 6, 8, 24 and 30 h post-dose, mixed with two volumes of distilled water and stored frozen until UPLC/MS/MS analysis.
Pharmacokinetic parameters were derived from the blood concentration time curve for each compound using PKsolutions software v 2.0 (Summit Research Services, USA).
In vivo antimalarial efficacy studies in P. berghei. (Swiss TPH)
In vivo efficacy was conducted as previously described10 with the modification that female NMRI mice (n = 3) were infected with a GFP-transfected P. berghei ANKA strain (donated by A. P. Waters and C. J. Janse, Leiden University, The Netherlands), and parasitaemia determined (96 h after infection) using standard flow cytometry techniques. Compounds 1, 25, 27, 30 and 49 were prepared in 10% DM SO, 40% PEG 400 and 50% water prior to administration orally, once daily for 4 days.
Compounds 40, 41, 43 and 44 were prepared in a non-solubilizing, standard suspension vehicle called HPMC (0.5% [wt/vol] hydroxypropylmethylcellulose, 0.5% [vol/vol] benzyl alcohol, 0.4% [vol/vol] Tween 80, and 0.9% [wt/vol] sodium chloride in water) prior to administration orally, once daily for 4 days. Blood samples were collected on day 4 (96 h after infection) in two volumes water. Animals […]
and then hourly up to 4 h after dosing each day. The animals were selected randomly for each group

[4] = 3D7, supplementary csv, read-out: Pf (3D7) EC50

- LLE (ligand-lipophilicity efficiency) (Pf (3D7)): 2.6
SMILES: Cc1ccc(-c2cc(C(=O)Nc3cccnc3)c3cc(Br)ccc3n2)cc1 [Compound 1]

SMILES: Cc1ccc(-c2cc(C(=O)NCCCN(C)C)c3cc(Cl)ccc3n2)cc1 [Compound 14, 6-Chloro-N-(3-(dimethylamino)propyl)-2-(p-tolyl)quinoline-4-carboxamide]
- EC50 (MRC-5 cell line): 5.55 µM

SMILES: Cc1ccc(-c2cc(C(=O)NCCN3CCCCC3)c3cc(Cl)ccc3n2)cc1 [Compound 17]
- EC50 (MRC-5 cell line): 7.4 µM

- LLE (ligand-lipophilicity efficiency) (Pf (3D7)): 3.2
SMILES: Cc1ccc(-c2cc(C(=O)NCCN3CCCC3)c3cc(F)ccc3n2)cc1 [Compound 19]

SMILES: Cc1cc(Nc2cc(C(=O)NCCN3CCCC3)c3cc(F)ccc3n2)on1 [Compound 20]
- EC50 at 68 h [1]: > 50 µM

SMILES: O=C(NCCN1CCCC1)c1cc(N2CCn3ccnc3C2)nc2ccc(F)cc12 [Compound 22, 2-(5,6-Dihydroimidazo[1,2-a]pyrazine-7(8H)-yl)-6-fluoro-N-(2-(pyrrolidin-1-yl)ethyl)quinoline-4-carboxamide]
- EC50 at 68 h [1]: > 50 µM

- LLE (ligand-lipophilicity efficiency) (Pf (3D7)): 4.2
SMILES: O=C(NCCN1CCCC1)c1cc(N2CCC(N3CCOCC3)CC2)nc2ccc(Cl)cc12 [Compound 24, 6-Chloro-2-(4-morpholinopiperidin-1-yl)-N-(2-(pyrrolidin-1-yl)ethyl)quinoline-4-carboxamide]

- MLM Cli ([2]; mouse liver microsomes): < 0.5 mL/min/g
SMILES: O=C(NCCN1CCCC1)c1cc(NCCN2CCOCC2)nc2ccc(F)cc12 [Compound 26, 6-Fluoro-2-((3-morpholinoethyl)amino)-N-(2-(pyrrolidin-1-yl)ethyl)quinoline-4-carboxamide]

SMILES: O=C(NCCN1CCC(F)CC1)c1cc(NCCCN2CCOCC2)nc2ccc(F)cc12 [Compound 31]
- EC50 (MRC-5 cell line): 40.9 µM

SMILES: O=C(NCCN1CCOCC1)c1cc(NCCCN2CCOCC2)nc2ccc(F)cc12 [Compound 32]
- EC50 (MRC-5 cell line): > 50 µM

SMILES: O=C(NCCN1CCC(F)(F)CC1)c1cc(NCCCN2CCOCC2)nc2ccc(F)cc12 [Compound 33]
- EC50 (MRC-5 cell line): > 50 µM

SMILES: O=C(NCCN1CCCC(F)(F)C1)c1cc(NCCCN2CCOCC2)nc2ccc(F)cc12 [Compound 34]
- EC50 (MRC-5 cell line): > 50 µM

SMILES: O=C(NCCN1CCC(F)(F)C1)c1cc(NCCCN2CCOCC2)nc2ccc(F)cc12 [Compound 35]
- EC50 (MRC-5 cell line): > 50 µM

SMILES: O=C(NCCN1CCCC1)c1cc(-c2ccc(C(=O)N3CCOCC3)cc2)nc2ccc(F)cc12 [Compound 39, 6-Fluoro-2-(4-(morpholine-4-carbonyl)phenyl)-N-(2-(pyrrolidin-1-yl)ethyl)quinoline-4-carboxamide]
- EC50 at 68 h [1]: > 50 µM

- EC50 [3, 4]: 10.4 µM
SMILES: O=C(NCCN1CCCC1)c1cc(-c2cccc(CN3CCOCC3)c2)nc2ccc(F)cc12 [Compound 45]

- MLM Cli ([2]; mouse liver microsome): <0.5 mL min^–1 g^–1
SMILES: O=C(NCCN1CCOCC1)c1cc(-c2ccc(CN3CCOCC3)cc2)nc2ccc(F)cc12 [Compound 46]
- drop in potency (Pf (3D7)): 12 fold

- MLM Cli ([2]; mouse liver microsome): <0.5 mL min^–1 g^–1
SMILES: CN(CCN1CCCC1)C(=O)c1cc(-c2ccc(CN3CCOCC3)cc2)nc2ccc(F)cc12 [Compound 47, 6-Fluoro-N-methyl-2-(4-(morpholinomethyl)phenyl)-N-(2-(pyrrolidin-1-yl)ethyl)quinoline-4-carboxamide]
- drop in potency (Pf (3D7)): 87 fold

- EC50 [3, 4]: 0.0024 µM
- MLM Cli ([2]; mouse liver microsome): 2 mL min^–1 g^–1
SMILES: O=C(NCCNC1CC1)c1cc(-c2ccc(CN3CCOCC3)cc2)nc2ccc(F)cc12 [Compound 48, N-(2-(Cyclopropylamino)ethyl)-6-fluoro-2-(4-(morpholinomethyl)phenyl)quinoline-4-carboxamide]

SMILES: O=C(NCCN1CCC1)c1cc(-c2ccc(CN3CCOCC3)cc2)nc2ccc(F)cc12 [Compound 49, N-(2-(Azetidin-1-yl)ethyl)-6-fluoro-2-(4-(morpholinomethyl)phenyl)quinoline-4-carboxamide]
- MLM Cli ([2]; mouse liver microsome): 0.5 mL min^–1 g^–1
- cure (P. berghei ANKA strain): 1/3

- EC50 ([3]; 3D7, quality control of the assay, read-out: potency range (drug control)): 0.03 to 0.06 µM
SMILES: OC(c1cc(C(F)(F)F)nc2c(C(F)(F)F)cccc12)C1CCCCN1 (stereo not drawn) [Mefloquine, reference compound]
